Data: ChEMBL document CHEMBL1201862, “PubChem BioAssay data set” (2004)
Activity calls are given as the source filed them.

Legend:
[1] = target: T1, Interleukin-8 (Homo sapiens, UniProt P10145); experiment: Dose Response confirmation of uHTS small molecule hits for cystic fibrosis induced NFkb Inhibitors in a TNFa-induced IL8 counterscreen.; format: functional; settings: read-out: IC50_Mean
T1 sequence (P10145 whole entry): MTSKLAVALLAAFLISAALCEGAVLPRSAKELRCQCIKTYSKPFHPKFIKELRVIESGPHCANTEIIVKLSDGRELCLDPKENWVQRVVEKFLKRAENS

[2] = target: T1, Interleukin-8; experiment: Dose Response confirmation of uHTS small molecule hits for cystic fibrosis induced NFkb Inhibitors in a PAF-induced IL8 counterscreen.; format: functional; settings: read-out: IC50_Mean
[3] = Luminescence Cell-Based Dose Response HTS to Identify Inhibitors of 5'UTR Stem-Loop Driven Prion Protein mRNA Translation in H4 Neuroglioblastoma Cells. [Related pubchem assays: 1827 (Project Summary), 1813 (Primary HTS)]; format: functional
[4] = cytotoxicity toward NIH3T3 fibroblasts, dose response, counter-screen, cell-based, ATP luminescence, mouse fibroblasts (AID 2010); format: functional;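 further: cells exposed to compound for about 90 hours before reading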
[5] = target: Beta Lactamase (Pseudomonas aeruginosa, UniProt Q932Y6); experiment: beta-lactamase reporter inhibitor potency, dose response, artefact control for TLR9-MyD88 binding inhibitor project, BLA reporter cells, FRET fluorescence (AID 588341); format: cell-based;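 further: cell based assay in CHO-K1 cells stably expressing beta-lactamase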
Chain of Beta Lactamase (Q932Y6 whole entry): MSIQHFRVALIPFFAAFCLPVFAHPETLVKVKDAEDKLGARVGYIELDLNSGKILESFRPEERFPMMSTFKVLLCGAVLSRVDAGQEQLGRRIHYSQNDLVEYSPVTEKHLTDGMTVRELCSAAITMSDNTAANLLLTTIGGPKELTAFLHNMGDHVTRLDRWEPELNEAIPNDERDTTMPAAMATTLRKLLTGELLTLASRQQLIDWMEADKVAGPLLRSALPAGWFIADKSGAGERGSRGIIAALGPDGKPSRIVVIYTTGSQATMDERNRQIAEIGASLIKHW

[6] = inhibitors of firefly luciferase expression or activity, dose response, H4 neuroglioma cells, luminescence (AID 1990); format: functional, cell-based
[7] = tested on: HeLa; experiment: Cytotoxicity counterscreen assay for transcriptional activators of heat shock protein 70 (Hsp70). [Related pubchem assays: 1203, 1252 ]; format: functional; settings: Homo sapiens;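 further: cells exposed to compound for 16 hours before readout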
[8] = target: T2, Protein RecA (Mycobacterium tuberculosis, UniProt P9WHJ3); experiment: Fluorescence Cell-Free Homogeneous Dose Retest to Identify Inhibitors of RecA-Intein Splicing Activity. [Related pubchem assays (depositor defined):AID2097, AID2223, AID489010, AID492950]; format: functional
T2 sequence (P9WHJ3 whole entry): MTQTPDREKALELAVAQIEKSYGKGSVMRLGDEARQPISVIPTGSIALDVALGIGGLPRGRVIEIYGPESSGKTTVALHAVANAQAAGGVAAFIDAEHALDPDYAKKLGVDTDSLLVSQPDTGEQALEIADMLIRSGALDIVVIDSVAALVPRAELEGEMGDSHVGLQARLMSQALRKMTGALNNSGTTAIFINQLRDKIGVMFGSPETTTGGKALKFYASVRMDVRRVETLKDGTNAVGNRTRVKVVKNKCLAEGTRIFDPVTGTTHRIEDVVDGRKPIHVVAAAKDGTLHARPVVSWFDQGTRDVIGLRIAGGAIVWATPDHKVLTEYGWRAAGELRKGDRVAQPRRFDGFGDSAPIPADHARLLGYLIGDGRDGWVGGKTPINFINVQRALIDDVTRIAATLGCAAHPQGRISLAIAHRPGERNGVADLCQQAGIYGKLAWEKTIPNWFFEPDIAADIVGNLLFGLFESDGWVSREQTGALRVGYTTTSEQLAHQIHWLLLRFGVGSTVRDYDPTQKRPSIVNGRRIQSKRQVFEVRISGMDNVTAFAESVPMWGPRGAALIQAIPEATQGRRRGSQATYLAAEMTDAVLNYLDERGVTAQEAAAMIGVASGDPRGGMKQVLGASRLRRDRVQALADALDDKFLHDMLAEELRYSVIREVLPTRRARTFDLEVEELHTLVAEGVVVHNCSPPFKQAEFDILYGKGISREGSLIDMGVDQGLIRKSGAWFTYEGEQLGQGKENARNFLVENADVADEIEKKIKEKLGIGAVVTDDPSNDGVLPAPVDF

[9] = target: T3, Fatty acid synthase (Homo sapiens, UniProt P49327); experiment: FAS thioesterase domain inhibitors, dose response, biochemical, kinetic fluorescence intensity (AID 624326); format: functional;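 further: rate of fluorescence rise from hydrolysis of a fluorogenic O-methyl fluorescein ester substrate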
T3 sequence (P49327 whole entry, the tested form may be a part): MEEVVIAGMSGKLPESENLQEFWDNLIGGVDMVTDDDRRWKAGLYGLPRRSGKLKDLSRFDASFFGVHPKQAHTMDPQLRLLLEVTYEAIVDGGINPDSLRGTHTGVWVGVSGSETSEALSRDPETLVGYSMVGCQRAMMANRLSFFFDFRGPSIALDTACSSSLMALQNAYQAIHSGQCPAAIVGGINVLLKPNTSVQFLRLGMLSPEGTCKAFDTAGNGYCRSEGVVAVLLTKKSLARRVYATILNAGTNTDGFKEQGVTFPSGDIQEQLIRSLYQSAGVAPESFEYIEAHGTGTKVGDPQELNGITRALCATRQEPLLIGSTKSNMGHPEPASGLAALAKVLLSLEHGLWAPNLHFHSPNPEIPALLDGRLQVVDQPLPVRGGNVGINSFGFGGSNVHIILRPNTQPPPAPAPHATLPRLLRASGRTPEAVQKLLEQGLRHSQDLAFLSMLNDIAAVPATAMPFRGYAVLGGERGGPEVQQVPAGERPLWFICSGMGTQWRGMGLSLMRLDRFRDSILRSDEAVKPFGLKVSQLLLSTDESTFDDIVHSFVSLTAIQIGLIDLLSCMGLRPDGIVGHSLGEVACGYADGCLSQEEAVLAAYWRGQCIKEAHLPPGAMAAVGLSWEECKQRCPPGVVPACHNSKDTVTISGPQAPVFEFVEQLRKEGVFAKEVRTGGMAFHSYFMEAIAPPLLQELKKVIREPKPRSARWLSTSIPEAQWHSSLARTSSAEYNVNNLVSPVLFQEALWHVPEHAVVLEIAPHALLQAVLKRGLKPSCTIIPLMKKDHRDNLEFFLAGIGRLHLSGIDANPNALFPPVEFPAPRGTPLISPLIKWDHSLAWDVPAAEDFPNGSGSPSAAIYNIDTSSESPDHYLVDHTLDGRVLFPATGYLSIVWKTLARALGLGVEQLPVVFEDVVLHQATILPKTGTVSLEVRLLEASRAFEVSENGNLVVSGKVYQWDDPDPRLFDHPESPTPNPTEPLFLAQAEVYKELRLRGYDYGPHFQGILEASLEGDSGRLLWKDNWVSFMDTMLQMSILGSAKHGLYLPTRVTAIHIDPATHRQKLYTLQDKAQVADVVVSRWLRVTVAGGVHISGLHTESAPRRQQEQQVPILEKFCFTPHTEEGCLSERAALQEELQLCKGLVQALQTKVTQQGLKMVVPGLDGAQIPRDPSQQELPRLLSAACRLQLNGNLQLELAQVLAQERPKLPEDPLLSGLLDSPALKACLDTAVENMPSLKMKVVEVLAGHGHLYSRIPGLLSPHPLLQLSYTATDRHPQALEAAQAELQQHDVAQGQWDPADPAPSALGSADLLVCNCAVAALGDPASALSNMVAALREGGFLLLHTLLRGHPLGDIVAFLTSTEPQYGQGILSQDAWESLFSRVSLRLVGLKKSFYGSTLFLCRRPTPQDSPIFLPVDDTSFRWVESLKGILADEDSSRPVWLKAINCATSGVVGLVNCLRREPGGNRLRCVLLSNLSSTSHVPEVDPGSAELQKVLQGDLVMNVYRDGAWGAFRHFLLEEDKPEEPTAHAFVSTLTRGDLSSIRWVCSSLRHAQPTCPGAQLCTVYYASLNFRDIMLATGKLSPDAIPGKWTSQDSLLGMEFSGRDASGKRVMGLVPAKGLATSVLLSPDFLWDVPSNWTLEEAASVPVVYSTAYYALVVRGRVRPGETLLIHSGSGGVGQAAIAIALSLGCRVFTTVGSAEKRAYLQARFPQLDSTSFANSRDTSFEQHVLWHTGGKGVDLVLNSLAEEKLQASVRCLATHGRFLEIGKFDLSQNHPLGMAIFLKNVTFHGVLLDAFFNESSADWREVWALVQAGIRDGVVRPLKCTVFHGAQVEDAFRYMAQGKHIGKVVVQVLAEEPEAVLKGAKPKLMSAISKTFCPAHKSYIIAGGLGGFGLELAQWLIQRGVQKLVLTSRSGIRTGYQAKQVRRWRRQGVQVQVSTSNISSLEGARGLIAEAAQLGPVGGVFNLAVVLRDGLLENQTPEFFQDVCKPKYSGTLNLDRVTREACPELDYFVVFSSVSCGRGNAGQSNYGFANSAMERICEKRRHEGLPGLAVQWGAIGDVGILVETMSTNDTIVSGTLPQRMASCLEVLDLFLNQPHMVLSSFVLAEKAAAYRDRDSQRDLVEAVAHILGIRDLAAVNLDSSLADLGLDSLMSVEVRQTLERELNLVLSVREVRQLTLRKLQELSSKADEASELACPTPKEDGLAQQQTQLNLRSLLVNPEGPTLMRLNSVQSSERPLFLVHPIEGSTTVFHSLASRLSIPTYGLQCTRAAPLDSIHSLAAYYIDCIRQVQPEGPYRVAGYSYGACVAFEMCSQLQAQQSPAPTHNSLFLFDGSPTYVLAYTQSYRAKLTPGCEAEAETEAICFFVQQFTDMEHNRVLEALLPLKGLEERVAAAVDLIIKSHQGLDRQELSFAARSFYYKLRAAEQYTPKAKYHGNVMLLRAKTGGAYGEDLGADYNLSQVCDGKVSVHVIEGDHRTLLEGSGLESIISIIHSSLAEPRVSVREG

[10] = target: T4, Replicative DNA helicase DnaB (Mycobacterium tuberculosis, UniProt P9WMR3); experiment: DnaB intein splicing inhibitors, dose response, biochemical, cell-free fluorescence (AID 449749); format: functional
T4 sequence (P9WMR3 whole entry): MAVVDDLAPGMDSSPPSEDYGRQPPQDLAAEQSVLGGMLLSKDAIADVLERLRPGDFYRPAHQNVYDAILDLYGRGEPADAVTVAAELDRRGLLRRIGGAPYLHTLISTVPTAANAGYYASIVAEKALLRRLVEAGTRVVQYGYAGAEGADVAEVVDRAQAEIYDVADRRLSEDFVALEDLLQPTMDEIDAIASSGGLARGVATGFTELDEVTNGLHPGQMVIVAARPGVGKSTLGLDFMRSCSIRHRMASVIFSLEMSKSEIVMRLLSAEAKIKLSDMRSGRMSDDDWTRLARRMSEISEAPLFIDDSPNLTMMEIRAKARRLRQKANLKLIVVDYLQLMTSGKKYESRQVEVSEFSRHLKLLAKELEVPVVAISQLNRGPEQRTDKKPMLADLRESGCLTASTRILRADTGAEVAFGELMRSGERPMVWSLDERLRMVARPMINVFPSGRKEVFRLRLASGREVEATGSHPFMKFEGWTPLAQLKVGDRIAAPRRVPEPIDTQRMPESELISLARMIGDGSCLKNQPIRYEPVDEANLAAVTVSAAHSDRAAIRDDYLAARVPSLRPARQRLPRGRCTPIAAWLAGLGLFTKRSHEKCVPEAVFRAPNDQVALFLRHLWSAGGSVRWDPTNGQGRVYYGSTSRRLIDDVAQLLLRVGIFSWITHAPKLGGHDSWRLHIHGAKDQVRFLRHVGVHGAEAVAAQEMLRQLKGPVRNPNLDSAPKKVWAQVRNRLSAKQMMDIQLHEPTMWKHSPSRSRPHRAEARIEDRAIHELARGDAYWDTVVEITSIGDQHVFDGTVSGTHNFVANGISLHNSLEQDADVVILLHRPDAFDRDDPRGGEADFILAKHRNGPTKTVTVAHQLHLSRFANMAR

[11] = target: T3, Fatty acid synthase; experiment: FAS thioesterase domain inhibitors, dose response, biochemical, endpoint fluorescence intensity, uHTS hits (AID 624327); format: functional;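 further: fluorescence from hydrolysis of an O-methyl fluorescein acyl ester substrate by the enzyme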
[12] = inhibitors of SNCA 5'UTR-driven reporter translation, confirmation, H4 neuroglioma cells, luminescence (AID 1988); format: functional, cell-based
[13] = inhibitors of intracellular T. cruzi replication, confirmation, NIH3T3 host cells, beta-gal luminescence (AID 2044); format: functional, cell-based;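 further: intracellular parasites grown in NIH/3T3 mouse fibroblasts as host cells; luminescent beta-galactosidase reporter signal from transgenic T. cruzi replicating inside host cells; inhibitors lower the luminescence signal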
[14] = tested on: CHO; experiment: cytotoxicity in TLR9-MyD88 CHO cells, dose response, cytotoxicity control for TLR9-MyD88 binding inhibitor project, cell-based, luminescence (AID 588339); format: functional, hamster; settings: Cricetulus griseus;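 further: CHO cells stably coexpressing TLR9 and MyD88 fusions from primary screen; compound exposure lasted 48 hours before viability readout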
[15] = target: Dual specificity protein kinase CLK4 (Homo sapiens, UniProt Q9HAZ1); format: functional
Chain of Dual specificity protein kinase CLK4 (Q9HAZ1 whole entry): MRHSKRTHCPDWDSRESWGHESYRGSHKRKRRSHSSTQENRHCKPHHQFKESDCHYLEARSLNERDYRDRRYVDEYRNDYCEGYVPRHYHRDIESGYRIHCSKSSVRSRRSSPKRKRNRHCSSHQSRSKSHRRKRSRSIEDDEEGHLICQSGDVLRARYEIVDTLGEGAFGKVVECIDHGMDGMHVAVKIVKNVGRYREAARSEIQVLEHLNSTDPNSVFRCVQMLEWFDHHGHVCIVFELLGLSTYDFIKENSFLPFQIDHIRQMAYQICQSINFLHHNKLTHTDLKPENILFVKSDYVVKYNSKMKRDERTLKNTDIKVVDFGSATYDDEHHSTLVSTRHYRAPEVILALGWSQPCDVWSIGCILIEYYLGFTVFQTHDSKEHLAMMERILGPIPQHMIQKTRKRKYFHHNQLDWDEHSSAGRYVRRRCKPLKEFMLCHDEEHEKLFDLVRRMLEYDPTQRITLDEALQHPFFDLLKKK

[16] = target: Fibroblast growth factor receptor 1 (Homo sapiens, UniProt P11362); format: functional
[17] = target: Dual specificity mitogen-activated protein kinase kinase 2 (Homo sapiens, UniProt P36507); experiment: Navigating the Kinome. Panel member name: MAP2K2; format: functional
Chain of Dual specificity mitogen-activated protein kinase kinase 2 (P36507 whole entry): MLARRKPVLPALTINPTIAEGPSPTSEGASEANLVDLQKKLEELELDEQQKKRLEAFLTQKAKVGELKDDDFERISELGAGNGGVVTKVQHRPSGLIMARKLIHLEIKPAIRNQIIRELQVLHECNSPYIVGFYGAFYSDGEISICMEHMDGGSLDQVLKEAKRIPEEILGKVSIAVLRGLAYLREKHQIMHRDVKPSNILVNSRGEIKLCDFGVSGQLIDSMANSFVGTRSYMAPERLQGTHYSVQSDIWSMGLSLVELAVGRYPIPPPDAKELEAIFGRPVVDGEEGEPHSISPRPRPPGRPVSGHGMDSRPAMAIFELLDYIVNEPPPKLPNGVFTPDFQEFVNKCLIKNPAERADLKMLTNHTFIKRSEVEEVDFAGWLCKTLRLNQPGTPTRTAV

[18] = target: T5, cAMP-dependent protein kinase catalytic subunit PRKX (Homo sapiens, UniProt P51817); format: functional
T5 sequence (P51817 whole entry): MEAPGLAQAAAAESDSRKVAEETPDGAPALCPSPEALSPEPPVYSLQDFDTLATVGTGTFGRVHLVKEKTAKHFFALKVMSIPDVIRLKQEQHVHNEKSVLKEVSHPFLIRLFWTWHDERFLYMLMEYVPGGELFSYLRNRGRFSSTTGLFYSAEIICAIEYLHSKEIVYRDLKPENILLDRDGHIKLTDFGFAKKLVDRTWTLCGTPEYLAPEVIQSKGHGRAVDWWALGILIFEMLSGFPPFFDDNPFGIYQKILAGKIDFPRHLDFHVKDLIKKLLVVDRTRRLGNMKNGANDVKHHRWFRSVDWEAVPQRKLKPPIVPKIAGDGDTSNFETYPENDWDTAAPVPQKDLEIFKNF

[19] = target: Ribosomal protein S6 kinase alpha-3 (Homo sapiens, UniProt P51812); format: functional;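 further: measured within a kinome-wide profiling panel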
[20] = target: Leukocyte tyrosine kinase receptor (Homo sapiens, UniProt P29376); experiment: Navigating the Kinome. Panel member name: LTK; format: functional
Chain of Leukocyte tyrosine kinase receptor (P29376 whole entry): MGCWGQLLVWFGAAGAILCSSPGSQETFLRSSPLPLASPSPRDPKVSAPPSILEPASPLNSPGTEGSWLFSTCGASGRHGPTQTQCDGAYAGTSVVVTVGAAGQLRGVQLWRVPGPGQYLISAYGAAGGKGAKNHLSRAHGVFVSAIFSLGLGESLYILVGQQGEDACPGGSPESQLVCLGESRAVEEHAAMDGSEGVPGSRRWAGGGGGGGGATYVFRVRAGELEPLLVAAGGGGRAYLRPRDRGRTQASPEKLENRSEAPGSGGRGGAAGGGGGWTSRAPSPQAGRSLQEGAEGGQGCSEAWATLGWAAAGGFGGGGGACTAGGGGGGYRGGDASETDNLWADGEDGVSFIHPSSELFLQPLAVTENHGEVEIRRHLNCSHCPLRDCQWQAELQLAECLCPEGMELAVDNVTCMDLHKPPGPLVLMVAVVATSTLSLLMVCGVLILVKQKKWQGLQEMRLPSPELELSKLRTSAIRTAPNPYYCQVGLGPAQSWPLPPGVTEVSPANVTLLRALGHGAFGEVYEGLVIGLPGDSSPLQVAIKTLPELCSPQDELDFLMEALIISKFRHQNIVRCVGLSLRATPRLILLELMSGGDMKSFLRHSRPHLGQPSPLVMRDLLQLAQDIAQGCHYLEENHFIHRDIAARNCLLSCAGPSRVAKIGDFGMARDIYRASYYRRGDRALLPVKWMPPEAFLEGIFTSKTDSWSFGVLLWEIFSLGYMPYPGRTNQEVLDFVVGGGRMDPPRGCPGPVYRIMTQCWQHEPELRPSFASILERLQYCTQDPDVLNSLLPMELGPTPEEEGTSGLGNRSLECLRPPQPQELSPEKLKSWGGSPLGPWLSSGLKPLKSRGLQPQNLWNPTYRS

[21] = target: Activated CDC42 kinase 1 (Homo sapiens, UniProt Q07912); experiment: Navigating the Kinome. Panel member name: ACK1; format: functional
[22] = target: Insulin-like growth factor 1 receptor (Homo sapiens, UniProt P08069); experiment: Navigating the Kinome. Panel member name: IGF1R; format: functional
[23] = target: Protein kinase C theta type (Homo sapiens, UniProt Q04759); experiment: Navigating the Kinome. Panel member name: PRKCQ; format: functional
[24] = target: High affinity nerve growth factor receptor (Homo sapiens, UniProt P04629); format: functional;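 further: NTRK1 tested as one member of a kinome-wide profiling panel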
[25] = target: Mitogen-activated protein kinase 9 (Homo sapiens, UniProt P45984); format: functional;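 further: value from a kinome panel profiling assay, MAPK9 panel entry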
[26] = target: Platelet-activating factor acetylhydrolase (Mus musculus, UniProt Q60963); experiment: Late stage assay provider results from the probe development effort to identify inhibitors of pPAFAH: fluorescence-based dose-response biochemical gel-based competitive Activity-Based Protein Profiling (ABPP) assay for SAR compounds.; format: functional
Chain of Platelet-activating factor acetylhydrolase (Q60963 whole entry): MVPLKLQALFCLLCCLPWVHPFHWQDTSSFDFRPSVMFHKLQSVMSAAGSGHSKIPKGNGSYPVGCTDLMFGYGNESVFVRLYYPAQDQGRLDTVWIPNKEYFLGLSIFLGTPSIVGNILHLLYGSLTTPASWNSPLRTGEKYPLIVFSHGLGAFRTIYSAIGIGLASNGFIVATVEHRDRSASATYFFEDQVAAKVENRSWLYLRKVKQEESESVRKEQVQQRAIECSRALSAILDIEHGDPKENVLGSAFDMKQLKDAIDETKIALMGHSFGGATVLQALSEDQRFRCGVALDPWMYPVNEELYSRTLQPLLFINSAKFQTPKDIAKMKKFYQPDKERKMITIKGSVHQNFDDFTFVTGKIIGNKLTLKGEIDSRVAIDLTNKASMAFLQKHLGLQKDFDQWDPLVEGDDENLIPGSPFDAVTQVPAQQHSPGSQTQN

Nc1nccc(SCc2ccc(Cl)cc2Cl)n1
IC50 [1]: > 79 µM (inactive) | IC50 [2]: 6.67 µM (active)

O=Cc1s/c(=N\S(=O)(=O)c2ccccc2)n(CCCCl)c1Cl
EC50 [3]: > 120 µM (not active) | EC50 [4]: 2.82 µM (active) | IC50 [5]: 19.5 µM (inactive) | EC50 [6]: > 60 µM (not active) | CC50 [7]: > 3.67 µM (not active) | EC50 [8]: 34.9 µM (active) | IC50 [9]: 3.15 µM (active) | AC50 [10]: 4.19 µM (active) | IC50 [11]: 6.11 µM (active) | EC50 [12]: 9.57 µM (active) | EC50 [13]: 1.39 µM (active) | IC50 [14]: 1.03 µM (active)

Nc1nccc2nc(-c3ccccc3)cn12
Ki [15]: 79.4 µM (active) | Ki [16]: 79.4 µM (active) | Ki [17]: 79.4 µM (active) | Ki [18]: 79.4 µM (active) | Ki [19]: 50.1 µM (active) | Ki [20]: 50.1 µM (active) | Ki [21]: 15.8 µM (active) | Ki [22]: 39.8 µM (active) | Ki [23]: 50.1 µM (active) | Ki [24]: 31.6 µM (active) | Ki [25]: 100 µM (active)

Cc1cc(N2CCN(C(=O)Oc3ccc(-c4ccccc4)cc3)CC2)c2ccccc2n1
IC50 [26]: 0.091 µM (active)
